Experiments:
[1] = target: T1, mouse CYP27B1 (Mus musculus, UniProt O35084); assay: Metabolism (1α-hydroxylation) of analogs by mouse CYP27B1; type: in vitro ADME
T1 construct: made in house; host or cells: E. coli
T1 sequence (O35084 1-507): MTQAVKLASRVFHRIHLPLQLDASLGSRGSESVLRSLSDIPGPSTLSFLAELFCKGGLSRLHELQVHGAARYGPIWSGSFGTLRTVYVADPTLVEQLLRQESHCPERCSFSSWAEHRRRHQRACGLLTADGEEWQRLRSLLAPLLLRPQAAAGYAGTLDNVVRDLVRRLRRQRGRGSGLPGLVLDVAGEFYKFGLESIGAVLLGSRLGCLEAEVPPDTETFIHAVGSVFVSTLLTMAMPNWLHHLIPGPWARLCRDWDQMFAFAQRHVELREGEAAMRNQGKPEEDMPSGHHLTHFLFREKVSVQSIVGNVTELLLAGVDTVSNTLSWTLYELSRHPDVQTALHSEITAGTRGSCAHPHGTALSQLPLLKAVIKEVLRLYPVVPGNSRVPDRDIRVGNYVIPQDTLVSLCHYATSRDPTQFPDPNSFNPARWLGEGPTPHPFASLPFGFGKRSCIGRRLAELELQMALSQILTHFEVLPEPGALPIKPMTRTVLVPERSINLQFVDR
Procedure: In order to make the 1α-OH derivatives of the 20S(OH)D3 analogs enzymatically, and to assess their likely capacity to be 1α-hydroxylated in vivo, the ability of mouse CYP27B1 to hydroxylate these metabolites was examined. 25(OH)D3, the major natural substrate for CYP27B1[2],[30], was included for comparison. The 20S(OH)D3 analogs were incorporated into phospholipid vesicles and incubated with CYP27B1, then the extent of their metabolism was determined by HPLC (Table 2). All analogs tested except 33 were metabolized by CYP27B1. In each case only a single metabolite was produced, assumed to be the 1α-OH derivative based on the known high specificity of the enzyme for the 1α-position[24],[30],[31]. […] Metabolism of 4 was almost twice that of 20S(OH)D3 and metabolism of 23 almost three fold. Thus, the modifications to C24 and/or C25 seen in 13, 4 and 23 enhanced their ability to be metabolized by CYP27B1. […] In contrast, the introduction of an amide linkage into the side chain, as in 33, prevented its hydroxylation by CYP27B1.
Rat CYP24A1, mouse CYP27B1 and adrenodoxin and human adrenodoxin reductase were expressed in E. coli and purified as described before[28],[30],[35]. To test metabolism of each analog, they were incorporated into phospholipid vesicles made from dioleoyl phosphatidylcholine and cardiolipin by sonication, as before[24],[28]. The substrates in vesicles (510 µM phospholipid) were incubated at 37 °C with either CYP24A1 (0.14 µM) or CYP27B1 (0.8 µM) in a reconstituted system containing adrenodoxin (15 µM) and adrenodoxin reductase (0.4 µM). Samples from incubations with CYP24A1 were extracted with dichloromethane and analysed by HPLC using a 25 cm Grace Alltima C18 column, as before[27],[28]. Products (except 33) were separated using an acetonitrile on water gradient (45% to 100% for 20 min then 100% acetonitrile for 40 min at a flow rate of 0.5 mL/min). For the more polar 33, the acetonitrile gradient was 30% to 100% acetonitrile for 30 min then 100% acetonitrile for 20 min, at 0.5 mL/min. Products from incubations with CYP27B1 were similarly extracted with dichloromethane and analyzed by reverse phase HPLC using a 15 cm Grace Smart C18 column and an acetonitrile in water gradient (10 min 45% to 100% acetonitrile then 20 min at 100% acetonitrile, at 0.5 mL/min).

[2] = tested on: CYP24A1 gene expression; assay: RT-PCR analysis of CYP24A1 expression in HaCaT cells; type: cell-based; details: Homo sapiens, 100 nM, 24 h treatment, read-out: relative mRNA level for CYP24A1 versus vehicle control
Procedure: Figure 7 20S(OH)D3 analogs upregulate the expression of CYP24A1 encoding the vitamin D catabolic enzyme, CYP24A1, with varying efficiencies. […] The mRNA was isolated and the RT-PCR was performed using specific primers for the CYP24A1 gene (see Methods). Data are presented as mean ± SE (n = 3). *p < 0.05, **p < 0.01 and ***p < 0.001 compared with the control.
HaCaT cells were purchased from Thermo Fisher Scientific (Waltham, MA, USA) and were cultured as for the VDRE reporter assay. The RNA from HaCaT keratinocytes treated with secosteroids or from DMSO controls was isolated using the Absolutely RNA Miniprep Kit (Stratagene, La Jolla, CA, USA). Reverse transcription (100 ng RNA/reaction) was performed with the Transcriptor First Strand cDNA Synthesis Kit (Roche Inc., Mannheim, Germany). Real-time PCR was performed using cDNA diluted 10-fold in sterile water and a SYBR Green PCR Master Mix. The primers for both forward and reverse strands for CYP24A1 were designed based on the mouse and rat sequences using Primer Quest software ([…], San Jose, CA, USA). Reactions (in triplicate) were performed at 50 °C for 2 min, 95 °C for 10 min and then 40 cycles of 95 °C for 15 s, 60 °C for 30 s and 72 °C for 30 s. Data were collected and analyzed on a Roche Light Cycler 480. The amount of the final amplified product for each gene was compared and normalized to the amount of β-actin product as a housekeeping gene using a comparative Ct method.

[3] = tested on: IFNγ production; assay: IFNγ inhibition assay in anti-CD3 activated splenocytes; details: for activity at 0.1 µM: Mus musculus, Splenocyte, 72 h, read-out: IFNγ (ratio ± SD)

Compound	conversion to product by CYP27B1, fold higher than 20S(OH)D3 ([1]; 20 min incubation)	fold induction at 0.1 µM [2]	activity at 0.1 µM [3]	Product (% total secosteroids) ([1]; 0.018 mol/mol phospholipid, 0.8 µM mouse CYP27B1, 20 min, 37 °C)	decrease of IFNγ production level ([3]; 100 nM)
C=C1CC[C@H](O)C/C1=C/C=C1\CCC[C@@]2(C)[C@H]1CC[C@@H]2[C@@](C)(O)CCOC(C)C [compound 13]	4.3 fold	0.8	82.4 ± 3.1%	–	–
C=C1CC[C@H](O)C/C1=C/C=C1\CCC[C@@]2(C)[C@H]1CC[C@@H]2[C@@](C)(O)CCCC(C)C [20S(OH)D3, 20S-hydroxyvitamin D3]	–	4.4	51.7 ± 4.6%	21.1 % total secosteroids	48%

From article PMC5784132, “Investigation of 20S-hydroxyvitamin D3 analogs and their 1α-OH derivatives as potent vitamin D receptor agonists with anti-inflammatory activities” (Scientific Reports, 2018)
